Assay results taken from patent US12261337B2, “Aqueous electrolyte, redox flow battery and use thereof” (priority 2018, dated 2025).

Experiments:
[1] = cited from earlier work
[2] = oxidized using Oxone; storage at 60° C., also in the absence of air; after three days

Compound	solubility in organic solvents ([1]; organic solvents)	solubility in water ([1]; water)	stability of the charged molecule / charged electrolytes after storage [2]
C1=C[CH]([Fe][CH]2C=CC=C2)C=C1 [Ferrocene, bis(η^5-cyclopentadienyl)iron(II)]	readily soluble	sparingly soluble	
ferrocene-bis-sulfonic acid [Example 1]			irreversible precipitate
